# Tests used:
# [1] = tested on: AML cells in bone marrow; experiment: Intra-vital 2-photon imaging of AML cell motility in bone marrow; type: in vivo, triple reporter mice; settings: from 2.2 μm/min, p<0.001; i.v. administration
# Excerpt: (§1) Intra-vital imaging was employed to investigate the effects of Compound B on AML cell motility in the bone marrow of triple reporter mice (Blood: dextran-TRITC; Host T-cells: DsRed; Host myeloid CD11 cells: EYFP) injected with AML cells carrying a turquoise fluorescent protein reporter gene. […] Individual cells were dislodged from the niche and traveled long-distance (FIG. 17C). The combined inhibition of E-selectin and CXCR4 depleted bone marrow vascular niche areas of leukemia cells.
# [2] = tested on: patient-derived primary AML xenograft (JAK2 and c-Kit); experiment: PDX model (mutations in JAK2 and c-Kit), LSC retention and CyTOF of BM cells; type: in vivo, mice
# Excerpt: as §1
# In order to better understand how the augmented AML mobilization improves the efficacy of AML therapy, BM cells from PDX mice treated for 2 weeks with Compound A, Compound B, venetoclax/HMA (Ven/HMA), and their combinations were analyzed by single-cell proteomics (CyTOF). […] However, pharmacological antagonists of E-selectin (Compound A) or E-selectin/CXCR4 (Compound B) protected endothelial cells from Ven/HMA-induced detrimental insults through upregulation of survival signaling cascades, including pAKT, pERK, pMAPK and […] eNOS expression in endothelial cells compared to Ven/HMA treatment alone.
# [3] = tested on: leukemia cells with ECs and MSCs; settings: Zhang et al., 2016, cited from earlier work
# [4] = tested on: leukemia cells in the BM; settings: in vivo; Zhang et al., 2016; cited from earlier work
# [5] = tested on: luc-MV4.11 cells; experiment: MV4.11 AML model survival; type: in vivo, NSG mice; settings: 40 mg/kg Compound A i.p., 100 mg/kg venetoclax oral, 14 days once daily
# Procedure: To evaluate the efficacy of targeting E-selectin with Compound A in combination with venetoclax, an in vivo MV4.11 AML model was employed (FIG. 16).
# luc-MV4.11 cells (5×10^6 cells/mouse) were transplanted into NSG mice. Mice were divided into four groups: vehicle treatment only; 40 mg/kg of Compound A (intraperitoneal, 14 day once daily); 100 mg/kg venetoclax (oral, 14 days once daily), and a combination of 40 mg/kg Compound A and 100 mg/kg venetoclax. Drug treatment was initiated on day 10 post-transplantation.
# [6] = in combination with Ven/HMA, 2 weeks, CyTOF of BM cells
Compound,AML cell motility [1] [μm/min],"levels of E-selectin ligand, mTOR, pFAK, pRb, cMyc [2, 6]","p21 and cleaved caspase3 [2, 6]","protection of MSC ([2]; mouse, in vivo)","protection of endothelial cells from Ven/HMA-induced detrimental insults ([2]; upregulated pAKT, pERK, pMAPK, decreased eNOS vs Ven/HMA alone)",leukemia cell adhesion to ECs and MSCs [3],BM-mediated protection of leukemic cells during FLT3-targeted therapy ([3]; in vitro),leukemia cells in the BM [4],median survival time (MST) [5] [days]
CCC1CC(C(=O)NCCNCc2ccc(CN3CCCNCCNCCCNCC3)c(Br)c2)CC(OC2OC(CO)C(O)C(O[C@@H](CC3CCCCC3)C(=O)O)C2NC(C)=O)C1OC1OC(C)C(O)C(O)C1O (stereo partly drawn) [Compound B],5.4,diminished,increasing,protected,protected,markedly reduced,eliminated,effectively reduced,
CC1(C)CCC(CN2CCN(c3ccc(C(=O)NS(=O)(=O)c4ccc(NCC5CCOCC5)c([N+](=O)[O-])c4)c(Oc4cnc5[nH]ccc5c4)c3)CC2)=C(c2ccc(Cl)cc2)C1 [venetoclax],,,,,,,,,46

# — patent US20240269157A1, “COMPOSITIONS AND METHODS FOR OVERCOMING MICROENVIRONMENT-MEDIATED RESISTANCE VIA E-SELECTIN TARGETING” (GLYCOMIMETICS, INC., priority 2021, published 2024)
